Laboratory results as given in ChEMBL document CHEMBL1141033, “First-in-class pan caspase inhibitor developed for the treatment of liver disease” (J Med Chem, 2005).

Each molecule was assayed against Caspase-8 (Homo sapiens) (UniProt Q14790) (assay: Inhibitory activity against Caspase-8). Conditions: not given.
Chain of Caspase-8 (Homo sapiens) (Q14790 217-374 limits assumed): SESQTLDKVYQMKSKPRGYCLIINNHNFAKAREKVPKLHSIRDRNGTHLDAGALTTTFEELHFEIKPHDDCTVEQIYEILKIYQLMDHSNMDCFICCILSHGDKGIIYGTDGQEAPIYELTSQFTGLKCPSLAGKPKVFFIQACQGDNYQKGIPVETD
Chain of Caspase-8 (Homo sapiens) (Q14790 385-479 limits assumed): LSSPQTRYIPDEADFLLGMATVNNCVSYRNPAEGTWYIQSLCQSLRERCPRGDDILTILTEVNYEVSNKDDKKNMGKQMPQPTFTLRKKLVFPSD

k3/Ki	Structure (SMILES)
342000 M⁻¹ s⁻¹	C[C@H](NC(=O)C(=O)Nc1ccccc1-c1ccccc1)C(=O)N[C@@H](CC(=O)O)C(=O)COC(=O)c1c(Cl)cccc1Cl
109 M⁻¹ s⁻¹	C[C@H](NC(=O)C(=O)Nc1ccccc1Cl)C(=O)N[C@@H](CC(=O)O)C(=O)COC(=O)c1c(Cl)cccc1Cl
204000 M⁻¹ s⁻¹	C[C@H](NC(=O)C(=O)Nc1ccc2c(c1)CCC2)C(=O)N[C@@H](CC(=O)O)C(=O)COc1c(F)c(F)cc(F)c1F
2800 M⁻¹ s⁻¹	C[C@H](NC(=O)C(=O)NC1CCCCC1)C(=O)N[C@@H](CC(=O)O)C(=O)COc1c(F)c(F)cc(F)c1F
1.2e+06 M⁻¹ s⁻¹	C[C@H](NC(=O)C(=O)Nc1ccccc1-c1ccc[nH]1)C(=O)N[C@@H](CC(=O)O)C(=O)COc1c(F)c(F)cc(F)c1F

Structure (SMILES)	k3/Ki
C[C@H](NC(=O)C(=O)Nc1ccccc1-c1ccccc1)C(=O)N[C@@H](CC(=O)O)C(=O)COP(=O)(c1ccccc1)c1ccccc1	1.57e+06 M⁻¹ s⁻¹
C[C@H](NC(=O)C(=O)Nc1ccccc1C(C)(C)C)C(=O)N[C@@H](CC(=O)O)C(=O)COP(=O)(c1ccccc1)c1ccccc1	2.01e+06 M⁻¹ s⁻¹

These molecules were tested on Mus musculus (assay: Effective dose required for pancaspase inhibition in a-Fas liver upon i.p. administration). Conditions: ip.

Structure (SMILES)	ED50
C[C@H](NC(=O)C(=O)Nc1ccccc1C(C)(C)C)C(=O)N[C@@H](CC(=O)O)C(=O)COP(=O)(c1ccccc1)c1ccccc1	0.14 mg/kg

Each molecule was assayed against T1, Caspase-1 (Mus musculus) (UniProt P29452) (assay: Inhibitory activity against murine Caspase-1). Conditions: not given.
T1 sequence (whole entry): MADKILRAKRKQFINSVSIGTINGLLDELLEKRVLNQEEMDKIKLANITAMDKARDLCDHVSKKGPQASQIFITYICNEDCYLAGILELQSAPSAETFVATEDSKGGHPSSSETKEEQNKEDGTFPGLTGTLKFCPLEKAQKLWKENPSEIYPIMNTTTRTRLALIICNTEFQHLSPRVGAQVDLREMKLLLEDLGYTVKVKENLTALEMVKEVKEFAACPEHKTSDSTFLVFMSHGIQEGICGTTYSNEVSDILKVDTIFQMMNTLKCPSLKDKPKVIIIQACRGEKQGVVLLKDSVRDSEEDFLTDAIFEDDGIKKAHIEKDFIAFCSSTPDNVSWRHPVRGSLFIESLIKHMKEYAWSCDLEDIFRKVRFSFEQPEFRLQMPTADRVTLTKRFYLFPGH

k3/Ki	Structure (SMILES)
7.28e+06 M⁻¹ s⁻¹	C[C@H](NC(=O)C(=O)Nc1ccccc1-c1ccccc1)C(=O)N[C@@H](CC(=O)O)C(=O)COC(=O)c1c(Cl)cccc1Cl
8.31e+06 M⁻¹ s⁻¹	C[C@H](NC(=O)C(=O)Nc1ccccc1Cl)C(=O)N[C@@H](CC(=O)O)C(=O)COC(=O)c1c(Cl)cccc1Cl
270000 M⁻¹ s⁻¹	C[C@H](NC(=O)C(=O)Nc1ccc2c(c1)CCC2)C(=O)N[C@@H](CC(=O)O)C(=O)COc1c(F)c(F)cc(F)c1F
390000 M⁻¹ s⁻¹	C[C@H](NC(=O)C(=O)NC1CCCCC1)C(=O)N[C@@H](CC(=O)O)C(=O)COc1c(F)c(F)cc(F)c1F
1.52e+06 M⁻¹ s⁻¹	C[C@H](NC(=O)C(=O)Nc1ccccc1-c1ccc[nH]1)C(=O)N[C@@H](CC(=O)O)C(=O)COc1c(F)c(F)cc(F)c1F

Structure (SMILES)	k3/Ki
C[C@H](NC(=O)C(=O)Nc1ccccc1-c1ccccc1)C(=O)N[C@@H](CC(=O)O)C(=O)COP(=O)(c1ccccc1)c1ccccc1	5e+06 M⁻¹ s⁻¹
C[C@H](NC(=O)C(=O)Nc1ccccc1C(C)(C)C)C(=O)N[C@@H](CC(=O)O)C(=O)COP(=O)(c1ccccc1)c1ccccc1	2.16e+06 M⁻¹ s⁻¹

These molecules were tested on THP-1 (assay: Inhibitory concentration against THP-1 cells). Conditions: Homo sapiens.
Type: functional, cell-based

IC50	Structure (SMILES)
4360 nM	C[C@H](NC(=O)C(=O)Nc1ccccc1-c1ccccc1)C(=O)N[C@@H](CC(=O)O)C(=O)COC(=O)c1c(Cl)cccc1Cl
320 nM	C[C@H](NC(=O)C(=O)Nc1ccccc1Cl)C(=O)N[C@@H](CC(=O)O)C(=O)COC(=O)c1c(Cl)cccc1Cl
120 nM	C[C@H](NC(=O)C(=O)Nc1ccc2c(c1)CCC2)C(=O)N[C@@H](CC(=O)O)C(=O)COc1c(F)c(F)cc(F)c1F
500 nM	C[C@H](NC(=O)C(=O)NC1CCCCC1)C(=O)N[C@@H](CC(=O)O)C(=O)COc1c(F)c(F)cc(F)c1F
> 32000 nM	C[C@H](NC(=O)C(=O)Nc1ccccc1-c1ccc[nH]1)C(=O)N[C@@H](CC(=O)O)C(=O)COc1c(F)c(F)cc(F)c1F

Structure (SMILES)	IC50
C[C@H](NC(=O)C(=O)Nc1ccccc1-c1ccccc1)C(=O)N[C@@H](CC(=O)O)C(=O)COP(=O)(c1ccccc1)c1ccccc1	4120 nM
C[C@H](NC(=O)C(=O)Nc1ccccc1C(C)(C)C)C(=O)N[C@@H](CC(=O)O)C(=O)COP(=O)(c1ccccc1)c1ccccc1	9090 nM

Each molecule was assayed against T2, Caspase-3 (Homo sapiens) (UniProt P42574) (assay: Inhibitory activity against Caspase-3). Conditions: not given.
T2 sequence (whole entry): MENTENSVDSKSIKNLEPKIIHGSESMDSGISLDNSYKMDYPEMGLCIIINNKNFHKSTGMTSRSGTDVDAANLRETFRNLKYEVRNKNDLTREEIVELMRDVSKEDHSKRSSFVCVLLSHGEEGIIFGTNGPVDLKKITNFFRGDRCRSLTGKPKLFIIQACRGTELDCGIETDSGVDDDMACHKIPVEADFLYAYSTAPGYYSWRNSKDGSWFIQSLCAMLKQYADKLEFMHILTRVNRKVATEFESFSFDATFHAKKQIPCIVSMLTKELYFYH

k3/Ki	Structure (SMILES)
29000 M⁻¹ s⁻¹	C[C@H](NC(=O)C(=O)Nc1ccccc1-c1ccccc1)C(=O)N[C@@H](CC(=O)O)C(=O)COC(=O)c1c(Cl)cccc1Cl
256000 M⁻¹ s⁻¹	C[C@H](NC(=O)C(=O)Nc1ccccc1Cl)C(=O)N[C@@H](CC(=O)O)C(=O)COC(=O)c1c(Cl)cccc1Cl
42000 M⁻¹ s⁻¹	C[C@H](NC(=O)C(=O)Nc1ccc2c(c1)CCC2)C(=O)N[C@@H](CC(=O)O)C(=O)COc1c(F)c(F)cc(F)c1F
21000 M⁻¹ s⁻¹	C[C@H](NC(=O)C(=O)NC1CCCCC1)C(=O)N[C@@H](CC(=O)O)C(=O)COc1c(F)c(F)cc(F)c1F
12000 M⁻¹ s⁻¹	C[C@H](NC(=O)C(=O)Nc1ccccc1-c1ccc[nH]1)C(=O)N[C@@H](CC(=O)O)C(=O)COc1c(F)c(F)cc(F)c1F

Structure (SMILES)	k3/Ki
C[C@H](NC(=O)C(=O)Nc1ccccc1-c1ccccc1)C(=O)N[C@@H](CC(=O)O)C(=O)COP(=O)(c1ccccc1)c1ccccc1	28400 M⁻¹ s⁻¹
C[C@H](NC(=O)C(=O)Nc1ccccc1C(C)(C)C)C(=O)N[C@@H](CC(=O)O)C(=O)COP(=O)(c1ccccc1)c1ccccc1	99100 M⁻¹ s⁻¹

These molecules were tested against T3, Caspase-6 (Homo sapiens) (UniProt P55212) (assay: Inhibitory activity against Caspase-6). Conditions: not given.
T3 sequence (whole entry): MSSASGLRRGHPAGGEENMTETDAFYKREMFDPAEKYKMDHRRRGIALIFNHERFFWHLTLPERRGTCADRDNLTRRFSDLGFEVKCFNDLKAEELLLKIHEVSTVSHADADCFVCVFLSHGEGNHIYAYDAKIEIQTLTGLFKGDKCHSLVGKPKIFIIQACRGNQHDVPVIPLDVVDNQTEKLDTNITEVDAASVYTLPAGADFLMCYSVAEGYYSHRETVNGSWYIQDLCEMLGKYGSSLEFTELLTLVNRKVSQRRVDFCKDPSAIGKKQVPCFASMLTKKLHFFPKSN

k3/Ki	Structure (SMILES)
61000 M⁻¹ s⁻¹	C[C@H](NC(=O)C(=O)Nc1ccccc1-c1ccccc1)C(=O)N[C@@H](CC(=O)O)C(=O)COC(=O)c1c(Cl)cccc1Cl
44000 M⁻¹ s⁻¹	C[C@H](NC(=O)C(=O)Nc1ccccc1Cl)C(=O)N[C@@H](CC(=O)O)C(=O)COC(=O)c1c(Cl)cccc1Cl
31900 M⁻¹ s⁻¹	C[C@H](NC(=O)C(=O)Nc1ccc2c(c1)CCC2)C(=O)N[C@@H](CC(=O)O)C(=O)COc1c(F)c(F)cc(F)c1F
268 M⁻¹ s⁻¹	C[C@H](NC(=O)C(=O)NC1CCCCC1)C(=O)N[C@@H](CC(=O)O)C(=O)COc1c(F)c(F)cc(F)c1F
7750 M⁻¹ s⁻¹	C[C@H](NC(=O)C(=O)Nc1ccccc1-c1ccc[nH]1)C(=O)N[C@@H](CC(=O)O)C(=O)COc1c(F)c(F)cc(F)c1F

Structure (SMILES)	k3/Ki
C[C@H](NC(=O)C(=O)Nc1ccccc1-c1ccccc1)C(=O)N[C@@H](CC(=O)O)C(=O)COP(=O)(c1ccccc1)c1ccccc1	22700 M⁻¹ s⁻¹
C[C@H](NC(=O)C(=O)Nc1ccccc1C(C)(C)C)C(=O)N[C@@H](CC(=O)O)C(=O)COP(=O)(c1ccccc1)c1ccccc1	52100 M⁻¹ s⁻¹

Each molecule was assayed on Jurkat (assay: Inhibitory concentration against JFas cells). Conditions: Homo sapiens.
Type: functional, cell-based

IC50	Structure (SMILES)
390 nM	C[C@H](NC(=O)C(=O)Nc1ccccc1-c1ccccc1)C(=O)N[C@@H](CC(=O)O)C(=O)COC(=O)c1c(Cl)cccc1Cl
1170 nM	C[C@H](NC(=O)C(=O)Nc1ccccc1Cl)C(=O)N[C@@H](CC(=O)O)C(=O)COC(=O)c1c(Cl)cccc1Cl
200 nM	C[C@H](NC(=O)C(=O)Nc1ccc2c(c1)CCC2)C(=O)N[C@@H](CC(=O)O)C(=O)COc1c(F)c(F)cc(F)c1F
150 nM	C[C@H](NC(=O)C(=O)NC1CCCCC1)C(=O)N[C@@H](CC(=O)O)C(=O)COc1c(F)c(F)cc(F)c1F
56 nM	C[C@H](NC(=O)C(=O)Nc1ccccc1-c1ccc[nH]1)C(=O)N[C@@H](CC(=O)O)C(=O)COc1c(F)c(F)cc(F)c1F

Structure (SMILES)	IC50
C[C@H](NC(=O)C(=O)Nc1ccccc1-c1ccccc1)C(=O)N[C@@H](CC(=O)O)C(=O)COP(=O)(c1ccccc1)c1ccccc1	3940 nM
C[C@H](NC(=O)C(=O)Nc1ccccc1C(C)(C)C)C(=O)N[C@@H](CC(=O)O)C(=O)COP(=O)(c1ccccc1)c1ccccc1	81 nM

What follows are molecules tested on Rattus norvegicus (assay: Effective dose required for pancaspase inhibition in a-Fas liver after an i.p. administration). Conditions: ip.
Type: functional

Structure (SMILES)	ED50
C[C@H](NC(=O)C(=O)Nc1ccccc1-c1ccccc1)C(=O)N[C@@H](CC(=O)O)C(=O)COP(=O)(c1ccccc1)c1ccccc1	0.44 mg/kg
